# Test: recombinant barcode read abundance after kanamycin selection (control-corrected) (log10(CPM+1)); higher = more efficient recombination; sequences stand for … in AGTGCAGAGAAAATCGGCCAGTTTTCTCTGCCTGCAGTCCGCATGCCGT…AGATTTATGCAGCGGACTGCCTTTCTCCCAAAGTGATAAACCGGACAGTATCATGGACCGGTTTTCCCGGTAATCCGTATTTGCAAGGTTGGTTTCACT; site = the 11-nt target
# Outline: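 Pooled oligos, each joining a target to an IS621 bridge RNA target-binding loop, were cloned and co-electroporated with a donor plasmid into E. coli. Selective plates carried chloramphenicol/ampicillin/kanamycin and 0.1 mM IPTG, while chloramphenicol/ampicillin LB agar served as control, with two replicates of each. Recombination efficiency rests on averaged, control-corrected counts per million of barcodes at recombinant junctions, shown as log10(CPM+1).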
# 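Further: IS621 recombinase and bridge RNA in Escherichia coli cells.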
row,Sequence,recombinant barcode read abundance (log10)
1,GTTTGAGCTTGGGTTCTAACCTGTTGCCT (site GTTCGAGCTAG),0.261
2,GTTTGAGCTTGGGTTCTAACCTGTTGCCT (site GTTGGAGCTAG),0.05
3,GTTTGAGCTTGGGTTCTAACCTGTTGCCT (site GTTTGAGCTAG),0.625
4,TAAAAGCCTTGGGTTCTAACCTGTTGCCT (site TAAAAGACTAG),0.0773
5,TAAAAGCCTTGGGTTCTAACCTGTTGCCT (site TAAAAGCCTAG),0.42
6,TAAAAGCCTTGGGTTCTAACCTGTTGCCT (site TAAAAGGCTAG),0.0822
7,TAAAAGCCTTGGGTTCTAACCTGTTGCCT (site TAAAAGTCTAG),0.224
8,TAAATCACTTGGGTTCTAACCTGTTGCCG (site ACGTATGCTAT),0.0241
9,TAAATCACTTGGGTTCTAACCTGTTGCCG (site TAAATCACTCG),0.281
10,TAACGCTCTTGGGTTCTAACCTGTTGCCT (site AAACGCTCTAG),0.0696
11,TAACGCTCTTGGGTTCTAACCTGTTGCCT (site TAACGCTCTAG),1.2
12,TAACGGGCTTGGGTTCTAACCTGTTGCCG (site TAAAGGGCTAG),0.0666
13,TAACGGGCTTGGGTTCTAACCTGTTGCCG (site TAACGGGCTCG),0.529
14,TAACGTACTTGGGTTCTAACCTGTTGCTT (site TAAAGTACTAA),0.137
15,TAACGTACTTGGGTTCTAACCTGTTGCTT (site TAACGTACTAA),0.641
16,TAACGTACTTGGGTTCTAACCTGTTGCTT (site TAAGGTACTAA),0.109
17,TAACGTACTTGGGTTCTAACCTGTTGCTT (site TAATGTACTAA),0.0185
18,TAACTTACTTGGGTTCTAACCTGTTGCAT (site TAACATACTAT),0.179
19,TAACTTACTTGGGTTCTAACCTGTTGCAT (site TAACCTACTAT),0.0991
20,TAACTTACTTGGGTTCTAACCTGTTGCAT (site TAACGTACTAT),0.0567
21,TAACTTACTTGGGTTCTAACCTGTTGCAT (site TAACTTACTAT),0.341
22,TAAGATGCTTGGGTTCTAACCTGTTGCGG (site GCGACATCTAG),0.0149
23,TAAGATGCTTGGGTTCTAACCTGTTGCGG (site TAAGATGCTCC),1.78
24,TAAGGCCCTTGGGTTCTAACCTGTTGCTT (site TAAGGCCCTAA),1.56
25,TAAGGCCCTTGGGTTCTAACCTGTTGCTT (site TCAGGCCCTAG),0.33
26,TAAGTCCCTTGGGTTCTAACCTGTTGCCT (site AAAGTCCCTAG),0.233

row,Sequence,recombinant barcode read abundance (log10)
1,TAAGTCCCTTGGGTTCTAACCTGTTGCCT (site CAAGTCCCTAG),0.583
2,TAAGTCCCTTGGGTTCTAACCTGTTGCCT (site GAAGTCCCTAG),0.017
3,TAAGTCCCTTGGGTTCTAACCTGTTGCCT (site TAAGTCCCTAG),1.9
4,TAATCGCCTTGGGTTCTAACCTGTTGCCT (site TAATCGACTAG),0.122
5,TAATCGCCTTGGGTTCTAACCTGTTGCCT (site TAATCGCCTAG),0.126
6,TAATCGCCTTGGGTTCTAACCTGTTGCCT (site TAATCGGCTAG),0.102
7,TAATCGCCTTGGGTTCTAACCTGTTGCCT (site TAATCGTCTAG),0
8,TAATCTCCTTGGGTTCTAACCTGTTGCGT (site GGTGGCTCTTG),0.0934
9,TAATCTCCTTGGGTTCTAACCTGTTGCGT (site TAATCTCCTAC),0.167
10,TAATGACCTTGGGTTCTAACCTGTTGCTT (site TAATGACCTAA),0.816
11,TAATGACCTTGGGTTCTAACCTGTTGCTT (site TAATGACCTAT),0.123
12,TAATGTACTTGGGTTCTAACCTGTTGCTT (site TAAAGTACTAA),0.0506
13,TAATGTACTTGGGTTCTAACCTGTTGCTT (site TAACGTACTAA),0.0626
14,TAATGTACTTGGGTTCTAACCTGTTGCTT (site TAAGGTACTAA),0.195
15,TAATGTACTTGGGTTCTAACCTGTTGCTT (site TAATGTACTAA),0.0687
16,TACAACACTTGGGTTCTAACCTGTTGCGT (site GTAGGTCCTCG),0.318
17,TACAACACTTGGGTTCTAACCTGTTGCGT (site TACAACACTAC),1.71
18,TACAAGTCTTGGGTTCTAACCTGTTGCGG (site TACAAGGCTCC),0.0774
19,TACAAGTCTTGGGTTCTAACCTGTTGCGG (site TACAAGTCTCC),1.88
20,TACACGACTTGGGTTCTAACCTGTTGCGG (site TACACGACTCC),1.51
21,TACACGACTTGGGTTCTAACCTGTTGCGG (site TACACTACTCG),0
22,TACAGAGCTTGGGTTCTAACCTGTTGCGG (site TAAAGAGCTCC),0.363
23,TACAGAGCTTGGGTTCTAACCTGTTGCGG (site TACAGAGCTCC),2.36
24,TACAGAGCTTGGGTTCTAACCTGTTGCGG (site TAGAGAGCTCC),0.127
25,TACAGAGCTTGGGTTCTAACCTGTTGCGG (site TATAGAGCTCC),0.488
26,TACAGGACTTGGGTTCTAACCTGTTGCAG (site TACAGGACTCT),2.15

row,Sequence,recombinant barcode read abundance (log10)
1,TACAGGACTTGGGTTCTAACCTGTTGCAG (site TAGAGGACTCT),0.274
2,TACAGTTCTTGGGTTCTAACCTGTTGCTT (site TACAGTTCTAA),0.173
3,TACAGTTCTTGGGTTCTAACCTGTTGCTT (site TACCATTCTAA),0.107
4,TACATCCCTTGGGTTCTAACCTGTTGCCT (site TACATCCCTAG),0.915
5,TACATCCCTTGGGTTCTAACCTGTTGCCT (site TACATCCCTCG),0.0996
6,TACATCCCTTGGGTTCTAACCTGTTGCCT (site TACATCCCTGG),0.0929
7,TACATCCCTTGGGTTCTAACCTGTTGCCT (site TACATCCCTTG),0.0395
8,TACCCACCTTGGGTTCTAACCTGTTGCAG (site CCGAATTCTAA),0.159
9,TACCCACCTTGGGTTCTAACCTGTTGCAG (site TACCCACCTCT),2.41
10,TACCCTACTTGGGTTCTAACCTGTTGCTA (site TACCCGCCTTA),0.146
11,TACCCTACTTGGGTTCTAACCTGTTGCTA (site TACCCTACTTA),0.736
12,TACCGAGCTTGGGTTCTAACCTGTTGCTG (site CCTGTCACTTG),0.377
13,TACCGAGCTTGGGTTCTAACCTGTTGCTG (site TACCGAGCTCA),0.604
14,TACCGCTCTTGGGTTCTAACCTGTTGCTT (site TACAGCTCTAA),0.0488
15,TACCGCTCTTGGGTTCTAACCTGTTGCTT (site TACCGCTCTAA),1.01
16,TACCGCTCTTGGGTTCTAACCTGTTGCTT (site TACGGCTCTAA),0.043
17,TACCGCTCTTGGGTTCTAACCTGTTGCTT (site TACTGCTCTAA),0.158
18,TACCGTCCTTGGGTTCTAACCTGTTGCAT (site TACCGTCCTAT),1.18
19,TACCGTCCTTGGGTTCTAACCTGTTGCAT (site TATCGTCCTAT),0.155
20,TACCGTCCTTGGGTTCTAACCTGTTGCGG (site GCGTCCTCTAA),0.312
21,TACCGTCCTTGGGTTCTAACCTGTTGCGG (site TACCGTCCTCC),1.8
22,TACCTTACTTGGGTTCTAACCTGTTGCAG (site AGAAGATCTAG),0.17
23,TACCTTACTTGGGTTCTAACCTGTTGCAG (site TACCTTACTCT),0.897
24,TACGAATCTTGGGTTCTAACCTGTTGCCT (site TACGAATCTAG),0.881
25,TACGAATCTTGGGTTCTAACCTGTTGCCT (site TACGAATCTCG),0.0232

# From the supplement of paper PMC11208160
